Laboratory results reported in PubChem BioAssay AID1963871 (Molecular Pharmacology Branch, DTP, NCI, 2024).
pIC50: −log10 of the molar value.

System: KRAS-mutant PDC multicell tumor spheroid viability
Assay: Anticancer human tumor 521955-158-R2-J5-PDC patient-derived pancreatic carcinoma cell line growth inhibition [KRAS2]
Details: for pIC50: curve of first compound; for viability, T/C: stronger effect = lower value
Outline: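 Combination screen of spheroid viability in tumor-cell co-cultures with endothelial (HUVEC) and mesenchymal stem cell stroma. Each agent was tested in half-log dilutions, topping at clinical Cmax or at 10 microM without a known Cmax.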

[1] = second compound 0.1 µM, first compound 0.0001 µM
[2] = second compound 0.1 µM, first compound 0.000316 µM
[3] = second compound 0.1 µM, first compound 0.001 µM
[4] = second compound 0.1 µM, first compound 0.00316 µM
[5] = second compound 0.1 µM, first compound 0.01 µM
[6] = second compound 0.1 µM, first compound 0.0316 µM
[7] = second compound 0.316 µM, first compound 0.0001 µM
[8] = second compound 0.316 µM, first compound 0.000316 µM
[9] = second compound 0.316 µM, first compound 0.001 µM
[10] = second compound 0.316 µM, first compound 0.00316 µM
[11] = second compound 0.316 µM, first compound 0.01 µM
[12] = second compound 0.316 µM, first compound 0.0316 µM
[13] = second compound 1 µM, first compound 0.0001 µM
[14] = second compound 1 µM, first compound 0.000316 µM
[15] = second compound 1 µM, first compound 0.001 µM
[16] = second compound 1 µM, first compound 0.00316 µM
[17] = second compound 1 µM, first compound 0.01 µM
[18] = second compound 1 µM, first compound 0.0316 µM
[19] = second compound 3.16 µM, first compound 0.0001 µM
[20] = second compound 3.16 µM, first compound 0.000316 µM
[21] = second compound 3.16 µM, first compound 0.00316 µM
[22] = second compound 3.16 µM, first compound 0.01 µM
[23] = second compound 3.16 µM, first compound 0.0316 µM
[24] = second compound 10 µM, first compound 0.0001 µM
[25] = second compound 10 µM, first compound 0.000316 µM
[26] = second compound 10 µM, first compound 0.001 µM
[27] = second compound 10 µM, first compound 0.00316 µM
[28] = second compound 10 µM, first compound 0.01 µM
[29] = second compound 10 µM, first compound 0.0316 µM
[30] = second compound 0.1 µM, first compound 0.1 µM
[31] = second compound 0.1 µM, first compound 0.316 µM
[32] = second compound 0.1 µM, first compound 1 µM
[33] = second compound 0.1 µM, first compound 3.16 µM
[34] = second compound 0.1 µM, first compound 10 µM
[35] = second compound 0.316 µM, first compound 0.1 µM
[36] = second compound 0.316 µM, first compound 0.316 µM
[37] = second compound 0.316 µM, first compound 1 µM
[38] = second compound 0.316 µM, first compound 3.16 µM
[39] = second compound 0.316 µM, first compound 10 µM
[40] = second compound 1 µM, first compound 0.1 µM
[41] = second compound 1 µM, first compound 0.316 µM
[42] = second compound 1 µM, first compound 1 µM
[43] = second compound 1 µM, first compound 3.16 µM
[44] = second compound 1 µM, first compound 10 µM
[45] = second compound 3.16 µM, first compound 0.1 µM
[46] = second compound 3.16 µM, first compound 0.316 µM
[47] = second compound 3.16 µM, first compound 1 µM
[48] = second compound 3.16 µM, first compound 3.16 µM
[49] = second compound 3.16 µM, first compound 10 µM
[50] = second compound 0.0316 µM, first compound 0.0316 µM
[51] = second compound 0.0316 µM, first compound 0.1 µM
[52] = second compound 3.16 µM, first compound 0.001 µM
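Note: viability read after seven days of drug exposure.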

## CC(=O)Nc1cccc(-n2c(=O)n(C3CC3)c(=O)c3c(Nc4ccc(I)cc4F)n(C)c(=O)c(C)c32)c1 + C=CC(=O)N1CCN(c2nc(=O)n(-c3c(C)ccnc3C(C)C)c3nc(-c4c(O)cccc4F)c(F)cc23)C(C)C1
Second compound 0.1 µM
  pIC50: 9.31
Second compound 0.316 µM
  pIC50: 9.37
Second compound 1 µM
  pIC50: 9.00
Second compound 3.16 µM
  pIC50: 9.35
Second compound 10 µM
  pIC50: > 10.00
[1]
  viability, T/C: 84.6%
[2]
  viability, T/C: 52.6%
[3]
  viability, T/C: 41.3%
[4]
  viability, T/C: 30.1%
[5]
  viability, T/C: 25.8%
[6]
  viability, T/C: 15.7%
[7]
  viability, T/C: 89.7%
[8]
  viability, T/C: 51.9%
[9]
  viability, T/C: 38.2%
[10]
  viability, T/C: 31.4%
[11]
  viability, T/C: 28.9%
[12]
  viability, T/C: 19.6%
[13]
  viability, T/C: 87.9%
[14]
  viability, T/C: 61%
[15]
  viability, T/C: 54.7%
[16]
  viability, T/C: 36.6%
[17]
  viability, T/C: 32.9%
[18]
  viability, T/C: 24.5%
[19]
  viability, T/C: 63.5%
[20]
  viability, T/C: 51.7%
[21]
  viability, T/C: 33.5%
[22]
  viability, T/C: 29.5%
[23]
  viability, T/C: 18.5%
[24]
  viability, T/C: 50.6%
[25]
  viability, T/C: 37.1%
[26]
  viability, T/C: 28.8%
[27]
  viability, T/C: 32.4%
[28]
  viability, T/C: 25%
[29]
  viability, T/C: 17.8%

## CC(C)NCC(C(=O)N1CCN(c2ncnc3c2C(C)CC3O)CC1)c1ccc(Cl)cc1 (centres undefined) + COc1cc2nc(C)nc(NC(C)c3cc(N)cc(C(F)(F)F)c3)c2cc1OC1CCOC1
Second compound 0.1 µM
  pIC50: < 5.00
Second compound 0.316 µM
  pIC50: < 5.00
Second compound 1 µM
  pIC50: < 5.00
Second compound 3.16 µM
  pIC50: < 5.00
Second compound 10 µM
  pIC50: 6.71
[6]
  viability, T/C: 89.3%
[30]
  viability, T/C: 92.2%
[31]
  viability, T/C: 70.4%
[32]
  viability, T/C: 75.2%
[33]
  viability, T/C: 70.9%
[34]
  viability, T/C: 56.4%
[12]
  viability, T/C: 95.9%
[35]
  viability, T/C: 86%
[36]
  viability, T/C: 71.7%
[37]
  viability, T/C: 67.5%
[38]
  viability, T/C: 71%
[39]
  viability, T/C: 60.7%
[18]
  viability, T/C: 81.3%
[40]
  viability, T/C: 86.6%
[41]
  viability, T/C: 60.2%
[42]
  viability, T/C: 64.1%
[43]
  viability, T/C: 63.7%
[44]
  viability, T/C: 60.8%
[23]
  viability, T/C: 87.3%
[45]
  viability, T/C: 93.1%
[46]
  viability, T/C: 72.2%
[47]
  viability, T/C: 56.8%
[48]
  viability, T/C: 59.4%
[49]
  viability, T/C: 43.5%
[29]
  viability, T/C: 48.7%
Second compound 10 µM, first compound 0.1 µM
  viability, T/C: 65.2%
Second compound 10 µM, first compound 0.316 µM
  viability, T/C: 43%
Second compound 10 µM, first compound 1 µM
  viability, T/C: 29.7%
Second compound 10 µM, first compound 3.16 µM
  viability, T/C: 14.3%
Second compound 10 µM, first compound 10 µM
  viability, T/C: 4.84%

## CC(C)n1nc(-c2ccc3oc(N)nc3c2)c2c(N)ncnc21 + C=CC(=O)N1CCN(c2nc(OCC3CCCN3C)nc3c2CCN(c2cccc4cccc(C)c24)C3)CC1CC#N
Second compound 0.0316 µM
  pIC50: 8.02
Second compound 0.1 µM
  pIC50: 8.17
Second compound 0.316 µM
  pIC50: 8.19
Second compound 1 µM
  pIC50: 8.48
Second compound 3.16 µM
  pIC50: > 9.50
Second compound 0.0316 µM, first compound 0.000316 µM
  viability, T/C: 105%
Second compound 0.0316 µM, first compound 0.001 µM
  viability, T/C: 97.1%
Second compound 0.0316 µM, first compound 0.00316 µM
  viability, T/C: 68.1%
Second compound 0.0316 µM, first compound 0.01 µM
  viability, T/C: 49.6%
[50]
  viability, T/C: 36.9%
[51]
  viability, T/C: 25.6%
[2]
  viability, T/C: 94.6%
[3]
  viability, T/C: 90.7%
[4]
  viability, T/C: 62.5%
[5]
  viability, T/C: 43.6%
[6]
  viability, T/C: 31.5%
[30]
  viability, T/C: 24.3%
[8]
  viability, T/C: 92.6%
[9]
  viability, T/C: 90.6%
[10]
  viability, T/C: 59%
[11]
  viability, T/C: 44.6%
[12]
  viability, T/C: 27%
[35]
  viability, T/C: 22.7%
[14]
  viability, T/C: 76.5%
[15]
  viability, T/C: 70.2%
[16]
  viability, T/C: 49.1%
[17]
  viability, T/C: 33.5%
[18]
  viability, T/C: 23.3%
[40]
  viability, T/C: 18.3%
[20]
  viability, T/C: 33.7%
[52]
  viability, T/C: 17.6%
[21]
  viability, T/C: 25.6%
[22]
  viability, T/C: 7.26%
[23]
  viability, T/C: 17%
[45]
  viability, T/C: 14.5%

## CC(C)NCC(C(=O)N1CCN(c2ncnc3c2C(C)CC3O)CC1)c1ccc(Cl)cc1 (centres undefined) + C=CC(=O)N1CCN(c2nc(OCC3CCCN3C)nc3c2CCN(c2cccc4cccc(C)c24)C3)CC1CC#N
Second compound 0.0316 µM
  pIC50: < 5.00
Second compound 0.1 µM
  pIC50: < 5.00
Second compound 0.316 µM
  pIC50: < 5.00
Second compound 1 µM
  pIC50: < 5.00
Second compound 3.16 µM
  pIC50: > 7.50
[50]
  viability, T/C: 108%
[51]
  viability, T/C: 110%
Second compound 0.0316 µM, first compound 0.316 µM
  viability, T/C: 84.5%
Second compound 0.0316 µM, first compound 1 µM
  viability, T/C: 87.1%
Second compound 0.0316 µM, first compound 3.16 µM
  viability, T/C: 92.3%
Second compound 0.0316 µM, first compound 10 µM
  viability, T/C: 65.8%
[6]
  viability, T/C: 103%
[30]
  viability, T/C: 103%
[31]
  viability, T/C: 84.5%
[32]
  viability, T/C: 83.6%
[33]
  viability, T/C: 79.6%
[34]
  viability, T/C: 59.8%
[12]
  viability, T/C: 97.5%
[35]
  viability, T/C: 92.3%
[36]
  viability, T/C: 76.2%
[37]
  viability, T/C: 73.5%
[38]
  viability, T/C: 75.4%
[39]
  viability, T/C: 52.1%
[18]
  viability, T/C: 81.6%
[40]
  viability, T/C: 80.4%
[41]
  viability, T/C: 65.8%
[42]
  viability, T/C: 59.2%
[43]
  viability, T/C: 62.3%
[44]
  viability, T/C: 50.6%
[23]
  viability, T/C: 12.2%
[45]
  viability, T/C: 14.6%
[46]
  viability, T/C: 17%
[47]
  viability, T/C: 11.6%
[48]
  viability, T/C: 3.96%
[49]
  viability, T/C: 1.11%

## CC(=O)Nc1cccc(-n2c(=O)n(C3CC3)c(=O)c3c(Nc4ccc(I)cc4F)n(C)c(=O)c(C)c32)c1 + CNCc1ccccc1-c1csc(C(C)Nc2nc(C)nc3cc(OC)c(OC)cc23)c1
Second compound 0.1 µM
  pIC50: 9.60
Second compound 0.316 µM
  pIC50: 9.55
Second compound 1 µM
  pIC50: 9.51
Second compound 3.16 µM
  pIC50: > 10.00
Second compound 10 µM
  pIC50: > 10.00
[1]
  viability, T/C: 70.5%
[2]
  viability, T/C: 44.9%
[3]
  viability, T/C: 28.5%
[4]
  viability, T/C: 27.1%
[5]
  viability, T/C: 20.9%
[6]
  viability, T/C: 15.9%
[7]
  viability, T/C: 69%
[8]
  viability, T/C: 43.6%
[9]
  viability, T/C: 38%
[10]
  viability, T/C: 26.3%
[11]
  viability, T/C: 22.2%
[12]
  viability, T/C: 14.1%
[13]
  viability, T/C: 81.5%
[14]
  viability, T/C: 39.6%
[15]
  viability, T/C: 35.7%
[16]
  viability, T/C: 24.5%
[17]
  viability, T/C: 7.75%
[18]
  viability, T/C: 2.12%
[19]
  viability, T/C: 1.11%
[20]
  viability, T/C: 0.2%
[52]
  viability, T/C: 1.26%
[21]
  viability, T/C: 0.11%
[22]
  viability, T/C: 0.95%
[23]
  viability, T/C: 0.19%
[24]
  viability, T/C: 0.21%
[25]
  viability, T/C: 0.24%
[26]
  viability, T/C: 0.18%
[27]
  viability, T/C: 0.4%
[28]
  viability, T/C: 2.28%
[29]
  viability, T/C: 0.26%
